PMC11807261 (ACS infectious diseases, 2022)

Tested on: GDI-KD-9, the Mtb H37Ra-derived glnA1 knockdown mutant
Format: cell-based, Mycobacterium tuberculosis

SMILES	level at which growth inhibition saturates [% full scale]	GIC shift (times more sensitive)	GIC shift caused by the reduction of glnA1 expression	growth inhibition at high concentrations
C[C@]1(O)C[C@@H](c2nc(-c3ccc4ccc(-c5ccccc5)nc4c3)c3c(N)nccn32)C1 [LIN, linsitinib]	20	–	–	–
COc1ccc2cc(-c3nc(C(C)(C)C)[nH]c3-c3ccnc(N)c3)ccc2c1 [11a]	20	3.6 times	3- to 4 fold	–
CO[C@H]1/C=C/O[C@@]2(C)Oc3c(C)c(O)c4c(O)c(c(/C=N/N5CCN(C)CC5)c(O)c4c3C2=O)NC(=O)/C(C)=C\C=C\[C@H](C)[C@H](O)[C@@H](C)[C@@H](O)[C@@H](C)[C@H](OC(C)=O)[C@@H]1C [RIF, rifampicin]	–	did not show any GIC shift	remained susceptible	–
CS(=N)(=O)CCC(N)C(=O)O [MSO, L-methionine S-sulfoximine]	–	–	16 fold	inhibits the growth completely
